57 compounds from article PMC12040169 (PLOS Biology, 2025) can be followed below.

A short description of this data set: in vitro. The conditions noted are these: human, hela cells, % viability.

Molecules are shown by their SMILES.

What is called viability is a read-out of living cells in per cent, often relative to untreated cells. Turning to `COc1ccc(N2CCN(CC(=O)Nc3ccc(Cl)cc3C(=O)c3ccccc3)CC2)cc1` [CBK265743], the viability at 28.5 h, 10 µM amounted to 90.7%. Consider `Cc1ccccc1C(c1ncccc1C)N(C)C(=O)C1CCN(Cc2ccc(Cl)c(Cl)c2)CC1` (stereo not drawn) [CBK148366], for which the viability at 28.5 h, 10 µM is 92.2%. As to `CCOc1cc(OCC)nc(Oc2ccc(C(=O)OC)cc2)n1` [CBK107733], the viability at 28.5 h, 10 µM was 87.2%. The same measure, in the same setting: under `CC(=O)Nc1c(C)ccc(S(=O)(=O)N2CCOCC2)c1C` [CBK034327] stands 98.6%; under `O=C(CN1C(=O)C2CCC(c3ccccc3)CC2C1=O)Nc1cccc2ccccc12` (stereo not drawn) [CBK268061], 86%.

`CC(=O)Nc1cccc(NC(=O)c2cc(-c3ccccn3)nc3ccc(Cl)cc23)c1` [CBK267747]: the viability at 28.5 h, 10 µM was 95.1%. Same read-out and setting: the result for `COc1ccc(CC(=O)NCCc2nnc3ccccn23)cc1` [CBK304613] reads 74.7%; that for `COC(=O)c1ccc(NC(=S)N2CCC(C(N)=O)CC2)cc1` [CBK267232], 90.2%; that for `Cn1cccc1CNCCN1CCOCC1` [CBK278187C], 89.2%. Same read-out and setting: under `Cc1noc(C(C)C)c1C(=O)NC1CCCN(c2ccn(C)n2)C1=O` (stereo not drawn) [CBK306356] stands 75.8%; under `CCc1nc2ccc(C(=O)Nc3ccc(OC)c(OC)c3)cn2c1N(CC)C(=O)NCCc1ccccc1` [CBK147035], 97.1%. Take `CS(=O)(=O)Nc1ccc(-c2ccsc2)c2ccccc12` [CBK083742]: the viability at 28.5 h, 10 µM was determined as 98.7%.

`COc1ccc(NC(=O)c2cnc(-c3cccc(C(F)(F)F)c3)c(-c3ccncc3)c2)cc1` [CBK037593]: the viability at 28.5 h, 10 µM is 87.3%. On the same count and under the same terms, under `COc1cccc(CC(=O)N2CCOc3ncccc32)c1` [CBK305235] stands 98.4%; under `CC1=NN(C(=O)c2ccc(Cl)cc2)C(C)(C)C1` [CBK058904], 111%; under `CN(C)C(=O)CN1CCN(C(=O)c2ccccc2C(=O)c2ccc(F)cc2)CC1` [CBK297921], 89.5%. On the same count and under the same terms, the result for `O=C(CSc1nnnn1CC1CCCO1)N1CC=C(c2ccccc2)CC1` (stereo not drawn) [CBK295160] reads 82%; that for `COc1ncc(-c2cncc(NCCO)n2)c(OC)n1` [CBK037939], 106%; that for `CC(C)(C)c1ccc(-n2cc(-c3ccc(F)cc3)nn2)cc1` [CBK113112], 103%. The same measure, in the same setting: under `Cn1c(=O)n(CC(=O)NCc2cccc(F)c2)c2cccnc21` [CBK283911] stands 105%. With `CC(C)(CO)Cn1c(=O)[nH]c2ncc(-c3ccc(C(N)=O)cc3)nc21` [CBK064787], the viability at 28.5 h, 10 µM turned out to be 88.5%. The same measure, in the same setting: under `CC(NC(=O)c1cc2ccc(N(C)C)cc2[nH]1)c1ccccn1` (stereo not drawn) [CBK281821] stands 80.6%; under `CCCCCCOC(=O)c1ccc2c(c1)C(=O)N(c1cccc(N)c1)C2=O` [CBK157034], 106%; under `CCNc1nnc(-c2c(Cl)c(C)nn2C)s1` [CBK288014], 92.5%. Same read-out and setting: the result for `CCC(=O)NCCc1cc2ccc(C)cc2[nH]c1=O` [CBK287434] reads 92.4%. As for `COc1nccnc1N1CCN(CCOc2ccccc2)CC1` [CBK084230], the viability at 28.5 h, 10 µM came out at 94.1%. Still for that read-out and setting: under `O=C1CCC(=O)N1CCOc1nccnc1N1CCN(CCc2c[nH]c3ccccc23)CC1` [CBK084304] stands 95.5%; under `CCOc1ccc(-c2cc(C(=O)N3CCN(C)CC3)c3ccccc3n2)cc1` [CBK066900], 99%; under `CC(C)c1nc(NCc2nnc(C(C)C)n2C)nc(N(C)C)n1` [CBK306402], 104%.

Regarding `CCCNC(=O)C1(Cc2ccccc2-c2ccccc2)CCN(C(=O)c2ccccc2)CC1` [CBK286275], the viability at 28.5 h, 10 µM was determined as 89.3%. Same read-out and setting: the result for `CC1Oc2ccc(NC(=O)C3CC4C=CC3C43CC3)cc2NC1=O` (stereo not drawn) [CBK281523] reads 101%.

`CC(C)C(=O)N[C@H]1CC[C@]2(CC1)CNC(=O)c1ccccc1O2` [CBK281675]: the viability at 28.5 h, 10 µM was determined as 103%. Still for that read-out and setting: under `O=S(=O)(Nc1cccc2cccnc12)c1cccs1` [CBK043904] stands 60.8%; under `N#CC(C(=O)CN1CCCC1)c1ccccc1` (stereo not drawn) [CBK269333], 98.1%. Still for that read-out and setting: under `c1ccc([C@@H]2CN(Cc3cccnc3)C[C@H]2c2cc[nH]n2)cc1` [CBK285160] stands 88.9%. On the same count and under the same terms, under `O=C(Nc1nc2c(Br)cccc2s1)c1nc2ccccc2s1` [CBK287619] stands 92.2%; under `COCc1ccc(-c2nccnc2NS(C)(=O)=O)cc1` [CBK049631], 101%; under `O=C1OCCN1CCN1CCCN(Cc2ccc(F)cc2)CC1` [CBK304023], 103%.

Turning to `COc1cc(NC(=O)N2CCC3(CC2)CC(=O)c2ccc(C)cc2O3)cc(OC)c1` [CBK166521], the viability at 28.5 h, 10 µM stood at 90.3%.

For the compound `C1=CCC(CN2CCN(C3CCN(Cc4ccccc4)CC3)CC2)CC1` (stereo not drawn) [CBK263469], the viability at 28.5 h, 10 µM was 91.6%.

Regarding `O=C(NC(Cc1ccsc1)c1nccs1)C1CCOCC1` (stereo not drawn) [CBK282824], the viability at 28.5 h, 10 µM was determined as 96.4%. Same read-out and setting: under `COc1ccc(S(=O)(=O)N(C)c2ccc(N3CCNCC3)c3ccccc23)cc1` [CBK022404C] stands 94.9%; under `CC(=O)c1cccc(NC(=O)Nc2cccc(S(=O)(=O)N3CCOCC3)c2)c1` [CBK266996], 89.9%; under `CC(=O)N1CCC(NC[C@H]2C[C@@H]3CCN2C[C@@H]3c2cc(C3CCCC3)nc(C)n2)CC1` [CBK289129], 84.3%. Still for that read-out and setting: the result for `O=C(O)CCC(=O)c1cccc([N+](=O)[O-])c1` [CBK263681] reads 101%; that for `CCOC(=O)c1sc(-c2ccccc2)nc1O` [CBK074298], 96.9%; that for `O=C(c1ccco1)N1CCN(c2ncc(-c3ccc(N4CCOCC4)cc3)n3ccnc23)CC1` [CBK091225], 92.6%. With `Cc1cc(OCC(=O)O)c(C)c2c1CC[C@@H]([C@H](C)C(=O)N1CCC(O)CC1)C2` [CBK289433], the viability at 28.5 h, 10 µM amounted to 78.7%. On the same count and under the same terms, the result for `NCc1ccc(CN(Cc2cnc(-c3ccccc3)[nH]2)C(=O)Nc2ccc3c(c2)OCO3)cc1` [CBK046158C] reads 89%. On to `O=[N+]([O-])c1ccccc1CN1CCN(c2ccccc2Cl)CC1` [CBK261572], for which the viability at 28.5 h, 10 µM (bulk resorufin, single well) came to 92%. For the compound `Nc1cc2cccnc2c(-c2cccc(C(F)(F)F)c2)n1` [CBK081177], the viability at 28.5 h, 10 µM was 106%. Consider `Fc1ccc(OCCNCC2NCCc3c2[nH]c2ccccc32)cc1` (stereo not drawn) [CBK066972], for which the viability at 28.5 h, 10 µM came out at 92.8%. `O=S(=O)(NCc1ccc2c(c1)OCO2)c1ccc2c(c1)oc1ccccc12` [CBK268308]: the viability at 28.5 h, 10 µM was 104%. The same measure, in the same setting: under `CS(=O)(=O)N(Cc1ccccc1)c1ccc(C(=O)Nc2ccc(-c3ccccc3)cc2)cc1` [CBK262754] stands 90.6%; under `Cc1nc(C2CCN(Cc3ccccc3)C2)c2ccccn12` (stereo not drawn) [CBK282111], 88.1%. The same measure, in the same setting: under `CN(C)CCN(C)c1nc(-c2ccc(F)c(Cl)c2)cn2ccnc12` [CBK038007] stands 95.7%.

`CC(C)(Oc1ccc(Cl)cc1)C(=O)Nc1ccc(CN2CCOCC2)cc1` [CBK269940]: the viability at 28.5 h, 10 µM amounted to 89.1%.
